In PubChem BioAssay AID256 (DTP/NCI, 2004) one finds T/C data, which are given here for 20 molecules.

The experiment concerns CD2F1 mice, L1210 leukemia ip, survival T/C. Kind of experiment: NCI In Vivo Anticancer Drug Screen. Data for tumor model L1210 Leukemia (intraperitoneal) in CD2F1 (CDF1) mice. The note with it: higher = longer survival. Put shortly: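 Ratio T/C, where T is the treated-group value and C the vehicle-dosed control value, from mice implanted with a transplantable tumor.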
Where [1] appears, read: endpoint: mean survival time, dose: 100.0 mg/kg/injection, schedule: Q01DX009 (ip), vehicle: saline with Tween-80.
Setting [2] is: endpoint: mean survival time, dose: 100.0 mg/kg/injection, schedule: Q04DX003 (ip), vehicle: saline with Tween-80.
Where [3] appears, read: endpoint: mean survival time, dose: 200.0 mg/kg/injection, schedule: Q01DX009 (ip), vehicle: saline with Tween-80.
Setting [4] is: endpoint: mean survival time, dose: 200.0 mg/kg/injection, schedule: Q04DX003 (ip), vehicle: saline with Tween-80.
The mark [5] stands for this setting: endpoint: mean survival time, dose: 400.0 mg/kg/injection, schedule: Q01DX009 (ip), vehicle: saline with Tween-80.
Setting [6] is: endpoint: mean survival time, dose: 100.0 mg/kg/injection, schedule: Q01DX001 (ip), vehicle: saline.
Setting [7] is: endpoint: mean survival time, dose: 200.0 mg/kg/injection, schedule: Q01DX001 (ip), vehicle: saline.
Where [8] appears, read: endpoint: mean survival time, dose: 400.0 mg/kg/injection, schedule: Q01DX001 (ip), vehicle: saline.
[9] abbreviates: endpoint: mean survival time, dose: 100.0 mg/kg/injection, schedule: Q01DX009 (ip), vehicle: Klucel (hydroxypropylcellulose) (HPC).
Setting [10] is: endpoint: mean survival time, dose: 100.0 mg/kg/injection, schedule: Q01DX001 (ip), vehicle: saline with Tween-80.
The mark [11] stands for this setting: endpoint: mean survival time, dose: 200.0 mg/kg/injection, schedule: Q01DX001 (ip), vehicle: saline with Tween-80.
Where [12] appears, read: endpoint: mean survival time, dose: 400.0 mg/kg/injection, schedule: Q04DX003 (ip), vehicle: saline with Tween-80.

Molecules are shown by their SMILES. “And” between values parts separate entries of the source, which are not always exact repeats. Equal entries are not always repeated. Toxic doses and inconclusive results are not listed.

Turning to `Cc1ccc(S(=O)(=O)NCCN(CCNS(=O)(=O)c2ccc(C)cc2)S(=O)(=O)c2ccc(C)cc2)cc1`, the T/C (endpoint: mean survival time, dose: 12.5 mg/kg/injection, schedule: Q01DX009 (ip), vehicle: other) was 88 % of control; the T/C (endpoint: mean survival time, dose: 25.0 mg/kg/injection, schedule: Q01DX009 (ip), vehicle: other) is 86 % of control; the T/C (endpoint: mean survival time, dose: 50.0 mg/kg/injection, schedule: Q01DX009 (ip), vehicle: other) is 86 % of control; the T/C (endpoint: mean survival time, dose: 100.0 mg/kg/injection, schedule: Q01DX009 (ip), vehicle: other) is 92 % of control; the T/C (endpoint: mean survival time, dose: 200.0 mg/kg/injection, schedule: Q01DX009 (ip), vehicle: other) is 105 % of control.

For the molecule `CN(C)c1ccc(N=Nc2cccc(C(=O)[O-])c2)cc1.CN(C)c1ccc(N=Nc2cccc(C(=O)[O-])c2)cc1.NC1CCCCC1N.[Pt+4]`, the T/C is 116 % of control and 98 % of control (endpoint: median survival time, dose: 3.12 mg/kg/injection, schedule: Q04DX003 (ip), vehicle: saline with Tween-80); 115 % of control and 109 % of control (endpoint: median survival time, dose: 6.25 mg/kg/injection, schedule: Q04DX003 (ip), vehicle: saline with Tween-80); 101 % of control (endpoint: median survival time, dose: 12.5 mg/kg/injection, schedule: Q04DX003 (ip), vehicle: saline with Tween-80); 375 % of control (endpoint: median survival time, dose: 100.0 mg/kg/injection, schedule: Q04DX003 (ip), vehicle: saline with Tween-80); 104 % of control (endpoint: median survival time, dose: 200.0 mg/kg/injection, schedule: Q04DX003 (ip), vehicle: saline with Tween-80).

On to `O=[n+]1cc2ccccn2cc1-c1ccccc1`, for which the T/C is 97 % of control under setting [1]; 104 % of control under setting [2]; 101 % of control under setting [3]; 104 % of control under setting [4]; 101 % of control under setting [5].

On to `CC1C=C(Br)C(=O)C(n2cnc3c(=O)n(C)c(=O)n(C)c32)O1` (stereo not given), for which the T/C is, setting by setting: (endpoint: mean survival time, dose: 12.5 mg/kg/injection, schedule: Q01DX005 (ip), vehicle: distilled water + Tween-80) 100 % of control; (endpoint: mean survival time, dose: 25.0 mg/kg/injection, schedule: Q01DX005 (ip), vehicle: distilled water + Tween-80) 97 % of control.

On to `Nc1ncnc2c1nnn2C1OC(CO)C(O)C1O` (stereo not given), for which the T/C reads like this: (endpoint: mean survival time, dose: 10.0 mg/kg/injection, schedule: Q01DX009 (ip), vehicle: Klucel (hydroxypropylcellulose) (HPC)) 110 % of control; (endpoint: mean survival time, dose: 15.0 mg/kg/injection, schedule: Q01DX009 (ip), vehicle: Klucel (hydroxypropylcellulose) (HPC)) 107 % of control; (endpoint: mean survival time, dose: 28.0 mg/kg/injection, schedule: Q01DX009 (ip), vehicle: Klucel (hydroxypropylcellulose) (HPC)) 121 % of control; (endpoint: mean survival time, dose: 63.0 mg/kg/injection, schedule: Q01DX009 (ip), vehicle: Klucel (hydroxypropylcellulose) (HPC)) 115 % of control.

On to `O=C(O)CSc1c(Cl)c(=O)oc2ccc(Cl)cc12`, for which the T/C by setting is: (endpoint: median survival time, dose: 6.25 mg/kg/injection, schedule: Q01DX009 (ip), vehicle: Klucel (hydroxypropylcellulose) (HPC)) 101 % of control; (endpoint: median survival time, dose: 12.5 mg/kg/injection, schedule: Q01DX009 (ip), vehicle: Klucel (hydroxypropylcellulose) (HPC)) 101 % of control; (endpoint: median survival time, dose: 25.0 mg/kg/injection, schedule: Q01DX009 (ip), vehicle: Klucel (hydroxypropylcellulose) (HPC)) 97 % of control; (endpoint: median survival time, dose: 50.0 mg/kg/injection, schedule: Q01DX009 (ip), vehicle: Klucel (hydroxypropylcellulose) (HPC)) 94 % of control; (endpoint: median survival time, dose: 100.0 mg/kg/injection, schedule: Q01DX009 (ip), vehicle: Klucel (hydroxypropylcellulose) (HPC)) 108 % of control; (endpoint: median survival time, dose: 200.0 mg/kg/injection, schedule: Q01DX009 (ip), vehicle: Klucel (hydroxypropylcellulose) (HPC)) 104 % of control.

With `O=S(=O)(O)C(I)S(=O)(=O)O`, the T/C by setting is: under setting [6], 97 % of control; under setting [7], 102 % of control; under setting [8], 114 % of control.

Regarding `Cc1ccc(CNC2=C(Cl)C(=O)c3ccccc3C2=O)cc1`, the T/C reads like this: (endpoint: mean survival time, dose: 6.25 mg/kg/injection, schedule: Q04DX003 (ip), vehicle: saline with Tween-80) 95 % of control; (endpoint: mean survival time, dose: 12.5 mg/kg/injection, schedule: Q04DX003 (ip), vehicle: saline with Tween-80) 98 % of control; (endpoint: mean survival time, dose: 25.0 mg/kg/injection, schedule: Q04DX003 (ip), vehicle: saline with Tween-80) 94 % of control and 97 % of control.

Regarding `O=C1c2cccc(O)c2C(=O)c2c(O)cccc21`, the T/C is 100 % of control under setting [6], 102 % of control under setting [7] and 100 % of control under setting [8].

Regarding `S=c1cc(-c2ccccc2)ss1`, the T/C runs as follows: under setting [1], 97 % of control; under setting [3], 97 % of control; under setting [5], 98 % of control.

For the molecule `CN(C)[C@@H]1C(=O)C(C(N)=O)=C(O)[C@]2(O)C(=O)C3C(=O)c4c(O)ccc(Cl)c4[C@](C)(O)[C@H]3C[C@@H]12` (stereo not given in full), the T/C is, setting by setting: (endpoint: mean survival time, dose: 50.0 mg/kg/injection, schedule: Q01DX009 (ip), vehicle: Klucel (hydroxypropylcellulose) (HPC)) 107 % of control; under setting [9], 118 % of control; (endpoint: mean survival time, dose: 225.0 mg/kg/injection, schedule: Q01DX009 (ip), vehicle: acetone) 101 % of control.

With `CSc1nc2cc(C)c(C)cc2[nH]1`, the T/C is, setting by setting: under setting [10], 103 % of control; under setting [1], 97 % of control; under setting [11], 97 % of control; under setting [3], 97 % of control; (endpoint: mean survival time, dose: 400.0 mg/kg/injection, schedule: Q01DX001 (ip), vehicle: saline with Tween-80) 105 % of control; under setting [5], 94 % of control.

Consider `O=C(CNC(=O)Nc1cccc([N+](=O)[O-])c1)N/N=C/c1ccc(F)cc1`, for which the T/C is, setting by setting: (endpoint: mean survival time, dose: 50.0 mg/kg/injection, schedule: Q01DX009 (ip), vehicle: saline with Tween-80) 89 % of control; under setting [1], 93 % of control; under setting [3], 101 % of control.

As for `CC(=O)Nc1ccc(SCCCc2c(N)nc(N)nc2N)cc1`, the T/C was 100 % of control under setting [10] and 100 % of control under setting [11].

Take `CSc1ncnc2nn(C3OC(CO)C(O)C3O)cc12` (stereo not given): the T/C reads like this: (endpoint: mean survival time, dose: 12.5 mg/kg/injection, schedule: Q01DX005 (ip), vehicle: water) 103 % of control; (endpoint: mean survival time, dose: 25.0 mg/kg/injection, schedule: Q01DX005 (ip), vehicle: water) 96 % of control; (endpoint: mean survival time, dose: 50.0 mg/kg/injection, schedule: Q01DX005 (ip), vehicle: water) 103 % of control; (endpoint: mean survival time, dose: 100.0 mg/kg/injection, schedule: Q01DX005 (ip), vehicle: water) 107 % of control; (endpoint: mean survival time, dose: 200.0 mg/kg/injection, schedule: Q01DX005 (ip), vehicle: water) 100 % of control.

For the molecule `CCC1(OC(=O)CNC)C(=O)OCc2c1cc1n(c2=O)Cc2cc3ccccc3nc2-1` (stereo not given), the T/C (endpoint: median survival time, dose: 7.5 mg/kg/injection, schedule: Q04DX002 (ip), vehicle: saline) was 124 % of control; the T/C (endpoint: median survival time, dose: 15.0 mg/kg/injection, schedule: Q04DX002 (ip), vehicle: saline) is 160 % of control and 162 % of control; the T/C (endpoint: median survival time, dose: 30.0 mg/kg/injection, schedule: Q04DX002 (ip), vehicle: saline) was 239 % of control; the T/C (endpoint: median survival time, dose: 60.0 mg/kg/injection, schedule: Q04DX002 (ip), vehicle: saline) is 108 % of control.

For the molecule `CCC(c1ccc2cc(OC)ccc2c1)C(CC(=O)O)C(=O)OC` (stereo not given), the T/C by setting is: under setting [9], 98 % of control; (endpoint: mean survival time, dose: 200.0 mg/kg/injection, schedule: Q01DX009 (ip), vehicle: Klucel (hydroxypropylcellulose) (HPC)) 98 % of control; (endpoint: mean survival time, dose: 400.0 mg/kg/injection, schedule: Q01DX009 (ip), vehicle: Klucel (hydroxypropylcellulose) (HPC)) 100 % of control.

In the case of `CC1(C)CC(=O)C2(C)CCC(=O)C=C2C1` (stereo not given), the T/C was 101 % of control under setting [2], 100 % of control under setting [4] and 100 % of control under setting [12].

On to `O=C(O)CC(O)(CC(=O)O)C(=O)O`, for which the T/C by setting is: (endpoint: mean survival time, dose: 60.0 mg/kg/injection, schedule: Q01DX001 (ip), vehicle: saline) 106 % of control; under setting [7], 96 % of control; under setting [8], 94 % of control; (endpoint: mean survival time, dose: 800.0 mg/kg/injection, schedule: Q01DX001 (ip), vehicle: saline) 100 % of control.

For `O=c1oc(/C=C/c2ccccc2)nc2cc(Cl)ccc12`, the T/C was 94 % of control under setting [2], 92 % of control under setting [4] and 97 % of control under setting [12].
